Assays:
Assay in all cases: REVEAL binding assay
Details in all cases: score as percentage of the signal generated by the positive control peptide
HLA-A1 = tested on: HLA-A1
Source text: (§5) The REVEAL™ binding assay determined the ability of each candidate peptide to bind to one or more MHC class I alleles and stabilizing the MHC-peptide complex. […] Detection is based on the presence or absence of the native conformation of the MHC-peptide complex. Each peptide is given a score relative to the positive control peptide, which is a known T cell epitope.

HLA-A24 = tested on: HLA-A24
Source text: as §5

HLA-A29 = tested on: HLA-A29
Source text: as §5

HLA-B8 = tested on: HLA-B8
Source text: as §5

HLA-B14 = tested on: HLA-B14
HLA-B15 = tested on: HLA-B15
Source text: as §5

HLA-A11 = HLA-A11 (Homo sapiens, UniProt P04439, A114D/F33Y/S129P)
Experimental: (§1) Binding properties to HLA for the ninemers listed in table 6 were tested for the following HLA-classes:
(§2) HLA-A1, HLA-A2, HLA-A3, HLA-A11, HLA-A24, HLA-A29, HLA-B7, HLA-B8, HLA-B14, HLA-B15, HLA-B27, HLA-B35, HLA-B40.
(§3) The peptides were synthesized as a Prospector PEPscreen®: Custom Peptide Library. […] Quality control by MALDI-TOF Mass Spectrometry was carried out on 100% of samples.
(§4) The REVEAL™ binding assay determined the ability of each candidate peptide to bind to one or more MHC class I alleles and stabilizing the MHC-peptide complex. By comparing the binding to that of high and intermediate affinity T cell epitopes, the most likely immunogenic peptides in a protein sequence can be identified. Detection is based on the presence or absence of the native conformation of the MHC-peptide complex. Each peptide is given a score relative to the positive control peptide, which is a known T cell epitope.

HLA-A2 = HLA-A2 (Homo sapiens, UniProt P04439, D140Y/D185E/D98H/E176V/E277Q/G131W/G231S/I119V/I121R/I166T/I218V/N151K/N90K/P208A/P217A/Q86G/Q94H/R138H/R169H)
Experimental: as §1, §2, §3, §4

HLA-A3 = HLA-A3 (Homo sapiens, UniProt P04439)
Experimental: as §1, §2, §3, §4

HLA-B27 = HLA-B27 (Homo sapiens, UniProt P01889, D138H/D201E/E176V/E204Q/G107R/H137Y/K202T/N104T/N87E/Q56L/Q94K/R106L/R155S/R180L/S101D/S121N/S48T/Y140D/Y33H/Y91C)
Experimental: as §1, §2, §3, §4

HLA-B7 = HLA-B7 (Homo sapiens, UniProt P01889)
Experimental: as §1, §2, §3, §4

HLA-B35 = tested on: HLA-B35
Source text: as §5

HLA-B40 = tested on: HLA-B40
Experimental: as §1, §2
The peptides were synthesized as a Prospector PEPscreen®: Custom Peptide Library. Peptides 8-15 amino acids in length were synthesized in 0.5-2 mg quantities with high average purity. Quality control by MALDI-TOF Mass Spectrometry was carried out on 100% of samples.
as §4, with “epitope. The score of the test peptide is reported quantitatively as a percentage of the signal generated by the positive control peptide, and the peptide is indicated as having a putative pass or fail result. Assay performance is confirmed by including an intermediate control peptide that is known to bind with weaker affinity to the allele under investigation.” for “epitope.”

HLA-B7, sequence (P61769 21-119): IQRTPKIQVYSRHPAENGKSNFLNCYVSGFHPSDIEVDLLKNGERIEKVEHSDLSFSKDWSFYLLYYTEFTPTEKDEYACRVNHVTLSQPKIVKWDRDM
HLA-B7, sequence (P01889 25-299): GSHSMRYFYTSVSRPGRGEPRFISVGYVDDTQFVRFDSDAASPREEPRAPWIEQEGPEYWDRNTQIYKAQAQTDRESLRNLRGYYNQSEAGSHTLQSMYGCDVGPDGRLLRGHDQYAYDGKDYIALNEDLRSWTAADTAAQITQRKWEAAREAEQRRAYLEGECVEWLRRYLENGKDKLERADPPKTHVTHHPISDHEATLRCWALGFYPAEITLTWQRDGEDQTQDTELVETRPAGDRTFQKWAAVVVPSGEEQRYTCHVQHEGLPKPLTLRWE
HLA-A3, sequence (P04439 25-299): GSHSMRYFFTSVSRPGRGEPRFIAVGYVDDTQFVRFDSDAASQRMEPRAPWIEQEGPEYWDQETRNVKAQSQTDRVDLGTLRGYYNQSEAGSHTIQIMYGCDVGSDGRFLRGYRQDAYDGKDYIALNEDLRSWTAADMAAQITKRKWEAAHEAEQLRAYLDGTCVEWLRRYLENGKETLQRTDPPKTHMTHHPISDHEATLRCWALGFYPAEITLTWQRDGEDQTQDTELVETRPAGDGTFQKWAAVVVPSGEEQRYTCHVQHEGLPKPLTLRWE
HLA-A3, sequence (P61769 21-119, further chain): as the sequence (P61769 21-119) above

Sequence	REVEAL binding score, HLA-type A1 (HLA-A1) [%]	REVEAL binding score, HLA-type A24 (HLA-A24) [%]	REVEAL binding score, HLA-type A29 (HLA-A29) [%]	REVEAL binding score, HLA-type B8 (HLA-B8) [%]	REVEAL binding score, HLA-type B14 (HLA-B14) [%]	REVEAL binding score, HLA-type B15 (HLA-B15) [%]	REVEAL binding score, HLA-type A11 (HLA-A11) [%]	REVEAL binding score, HLA-type A2 (HLA-A2) [%]	REVEAL binding score, HLA-type A3 (HLA-A3) [%]	REVEAL binding score, HLA-type B27 (HLA-B27) [%]	REVEAL binding score, HLA-type B7 (HLA-B7) [%]	REVEAL binding score, HLA-type B35 (HLA-B35) [%]	REVEAL binding score, HLA-type B40 (HLA-B40) [%]
GYIPLVGAP	15.62	0.80	29.74	15.94	0.47	11.02	3.84	7.28	3.46	1.76	1.37	10.35	72.32
GYLPAVGAP	12.04	0.35	26.03	17.38	0.11	10.50	4.25	5.87	2.90	0.73	3.10	1.84	27.82
IGGNYLIPR	17.90	0.89	14.85	14.23	0.32	15.02	3.57	7.04	2.88	0.82	20.49	2.54	25.44
IIGGNYLIP	21.14	10.95	13.88	12.18	1.17	19.93	2.81	8.27	3.88	0.97	15.47	5.35	65.43
IPLVGAPLG	13.28	0.60	26.79	17.87	0.03	10.01	2.05	4.32	2.59	0.35	2.34	30.74	41.10
IRNLGRVIE	14.22	0.61	11.06	9.10	30.77	4.06	5.31	8.77	3.89	1.84	1.43	1.98	21.40
IRVIAHGLR	15.82	0.50	23.19	13.34	0.10	8.99	2.50	4.83	3.58	9.37	3.50	0.66	26.45
ITFSIYLIV	9.89	0.77	24.10	11.38	1.53	6.68	5.31	43.08	1.66	4.79	4.32	12.30	78.84
IVGGVYLLP	22.11	0.30	12.38	11.48	1.65	15.00	3.10	6.78	1.88	0.68	24.16	2.68	19.83
KVIDTLTCG	15.77	0.57	13.16	13.17	0.18	10.13	8.91	19.13	4.27	0.63	0.57	2.74	32.89
LGKVIDTLT	22.08	0.70	15.99	17.96	0.43	7.14	12.95	4.05	7.39	2.90	0.94	5.11	44.92
LGRVIETLT	16.33	0.97	12.31	14.74	0.28	16.38	20.27	5.90	7.40	2.54	2.66	3.43	62.07
LMGYIPLVG	14.17	0.51	24.26	20.75	0.08	9.43	2.13	31.94	2.53	1.44	0.41	0.81	33.55
LPAVGAPIG	20.57	0.61	25.32	15.87	0.12	10.10	4.95	5.60	3.02	0.49	8.12	1.06	39.31
